Source: patent US20170190671A1, “BIS(ARYL)CATECHOL DERIVATIVES AS HERBICIDES” (E I DU PONT DE NEMOURS AND COMPANY, priority 2014, published 2017)

Assays:
Assay in all cases: Test C postemergence
Type in all cases: in vivo
[1] = system: wild oat (Avena fatua); settings: Avena fatua, post-emergence, Postemergence, scale 0 to 100, read-out: Plant response rating, Oat, Wild; for pest or weed control at 31 g/ha: 31 g ai/ha; for pest or weed control at 62 g/ha: 62 g ai/ha; for pest or weed control at 125 g/ha: 125 g ai/ha
[2] = system: pigweed (Amaranthus retroflexus); settings: Amaranthus retroflexus, post-emergence, 336 h, Postemergence, scale 0 to 100, read-out: Plant response rating, Pigweed; for pest or weed control at 31 g/ha: 31 g ai/ha; for pest or weed control at 62 g/ha: 62 g ai/ha; for pest or weed control at 125 g/ha: 125 g ai/ha
[3] = system: soybean (Glycine max); settings: Glycine max, post-emergence, Postemergence, scale 0 to 100, read-out: Plant response rating, Soybean; for plant injury at 31 g/ha: 31 g ai/ha; for plant injury at 62 g/ha: 62 g ai/ha; for plant injury at 125 g/ha: 125 g ai/ha
[4] = system: yellow nutsedge (Cyperus esculentus); settings: Cyperus, post-emergence, 336 h, Postemergence, scale 0 to 100, read-out: Plant response rating, Nutsedge, Yellow; for pest or weed control at 31 g/ha: 31 g ai/ha; for pest or weed control at 62 g/ha: 62 g ai/ha; for pest or weed control at 125 g/ha: 125 g ai/ha
[5] = system: barnyardgrass (Echinochloa crus-galli); settings: Echinochloa crus-galli, post-emergence, Postemergence, scale 0 to 100, read-out: Plant response rating, Barnyardgrass; for pest or weed control at 16 g/ha: 16 g ai/ha; for pest or weed control at 31 g/ha: 31 g ai/ha; for pest or weed control at 62 g/ha: 62 g ai/ha; for pest or weed control at 125 g/ha: 125 g ai/ha
[6] = system: lambsquarters (Chenopodium album); settings: Chenopodium album, post-emergence, 336 h, Postemergence, scale 0 to 100, read-out: Plant response rating, Lambsquarters; for pest or weed control at 16 g/ha: 16 g ai/ha; for pest or weed control at 31 g/ha: 31 g ai/ha; for pest or weed control at 62 g/ha: 62 g ai/ha; for pest or weed control at 125 g/ha: 125 g ai/ha
[7] = system: corn (Zea mays); settings: Zea mays, post-emergence, 336 h, Postemergence, scale 0 to 100; for Corn plant response rating (crop injury, 0 = no effect, 100 = complete kill) at 16 g/ha: 16 g ai/ha; for Corn plant response rating (crop injury, 0 = no effect, 100 = complete kill) at 31 g/ha: 31 g ai/ha; for Corn plant response rating (crop injury, 0 = no effect, 100 = complete kill) at 62 g/ha: 62 g ai/ha; for Corn plant response rating (crop injury, 0 = no effect, 100 = complete kill) at 125 g/ha: 125 g ai/ha
[8] = system: ragweed (common ragweed, Ambrosia elatior); settings: Ambrosia artemisiifolia, post-emergence, 336 h, Postemergence, scale 0 to 100, read-out: Plant response rating, Ragweed; for pest or weed control at 31 g/ha: 31 g ai/ha; for pest or weed control at 62 g/ha: 62 g ai/ha; for pest or weed control at 125 g/ha: 125 g ai/ha
[9] = system: johnsongrass (Sorghum halepense); settings: Sorghum halepense, post-emergence, 336 h, Postemergence, scale 0 to 100, read-out: Plant response rating, Johnsongrass; for pest or weed control at 16 g/ha: 16 g ai/ha; for pest or weed control at 31 g/ha: 31 g ai/ha; for pest or weed control at 62 g/ha: 62 g ai/ha; for pest or weed control at 125 g/ha: 125 g ai/ha
[10] = system: waterhemp (common waterhemp, Amaranthus rudis); settings: Amaranthus tuberculatus, post-emergence, Postemergence, scale 0 to 100, read-out: Plant response rating, Waterhemp; for pest or weed control at 31 g/ha: 31 g ai/ha; for pest or weed control at 62 g/ha: 62 g ai/ha; for pest or weed control at 125 g/ha: 125 g ai/ha
[11] = system: giant foxtail (Setaria faberii); settings: Setaria faberi, post-emergence, 336 h, Postemergence, scale 0 to 100, read-out: Plant response rating, Foxtail, Giant; for pest or weed control at 16 g/ha: 16 g ai/ha; for pest or weed control at 31 g/ha: 31 g ai/ha; for pest or weed control at 62 g/ha: 62 g ai/ha; for pest or weed control at 125 g/ha: 125 g ai/ha
[12] = system: Italian ryegrass (Lolium multiflorum); settings: Lolium multiflorum, post-emergence, 336 h, Postemergence, scale 0 to 100, read-out: Plant response rating, Ryegrass, Italian; for pest or weed control at 31 g/ha: 31 g ai/ha; for pest or weed control at 62 g/ha: 62 g ai/ha; for pest or weed control at 125 g/ha: 125 g ai/ha
[13] = system: chickweed (common chickweed, Stellaria media); settings: Stellaria media, post-emergence, Postemergence, scale 0 to 100, read-out: Plant response rating, Chickweed; for pest or weed control at 16 g/ha: 16 g ai/ha; for pest or weed control at 31 g/ha: 31 g ai/ha; for pest or weed control at 62 g/ha: 62 g ai/ha; for pest or weed control at 125 g/ha: 125 g ai/ha
[14] = system: blackgrass (Alopecurus myosuroides); settings: Alopecurus myosuroides, post-emergence, 336 h, Postemergence, scale 0 to 100, read-out: Plant response rating, Blackgrass; for pest or weed control at 16 g/ha: 16 g ai/ha; for pest or weed control at 31 g/ha: 31 g ai/ha; for pest or weed control at 62 g/ha: 62 g ai/ha; for pest or weed control at 125 g/ha: 125 g ai/ha
[15] = system: oilseed rape (Brassica napus); settings: Brassica napus, post-emergence, Postemergence, scale 0 to 100, read-out: Plant response rating, Oilseed Rape; for plant injury at 31 g/ha: 31 g ai/ha; for plant injury at 62 g/ha: 62 g ai/ha; for plant injury at 125 g/ha: 125 g ai/ha

Fc1ccc(F)c(Oc2ncc(Cl)cn2)c1Oc1ncc(Cl)cn1 [Compound 34, 2,2′-[(3,6-difluoro-1,2-phenylene)bis(oxy)]bis[5-chloropyrimidine]]
pest or weed control at 31 g/ha [1]: 0%
pest or weed control at 62 g/ha [1]: 5%
pest or weed control at 125 g/ha [1]: 10%
pest or weed control at 31 g/ha [2]: 80%
pest or weed control at 62 g/ha [2]: 90%
pest or weed control at 125 g/ha [2]: 90%
plant injury at 31 g/ha [3]: 70%
plant injury at 62 g/ha [3]: 85%
plant injury at 125 g/ha [3]: 40%
pest or weed control at 31 g/ha [4]: 10%
pest or weed control at 62 g/ha [4]: 10%
pest or weed control at 125 g/ha [4]: 10%
pest or weed control at 16 g/ha [5]: 5%
pest or weed control at 31 g/ha [5]: 5%
pest or weed control at 62 g/ha [5]: 10%
pest or weed control at 125 g/ha [5]: 10%
pest or weed control at 16 g/ha [6]: 55%
pest or weed control at 31 g/ha [6]: 75%
pest or weed control at 62 g/ha [6]: 70%
pest or weed control at 125 g/ha [6]: 80%
Corn plant response rating (crop injury, 0 = no effect, 100 = complete kill) at 16 g/ha [7]: 5%
Corn plant response rating (crop injury, 0 = no effect, 100 = complete kill) at 31 g/ha [7]: 5%
Corn plant response rating (crop injury, 0 = no effect, 100 = complete kill) at 62 g/ha [7]: 5%
Corn plant response rating (crop injury, 0 = no effect, 100 = complete kill) at 125 g/ha [7]: 5%
pest or weed control at 31 g/ha [8]: 50%
pest or weed control at 62 g/ha [8]: 60%
pest or weed control at 125 g/ha [8]: 60%
pest or weed control at 16 g/ha [9]: 5%
pest or weed control at 31 g/ha [9]: 5%
pest or weed control at 62 g/ha [9]: 10%
pest or weed control at 125 g/ha [9]: 10%
pest or weed control at 31 g/ha [10]: 70%
pest or weed control at 62 g/ha [10]: 80%
pest or weed control at 125 g/ha [10]: 90%
pest or weed control at 16 g/ha [11]: 5%
pest or weed control at 31 g/ha [11]: 5%
pest or weed control at 62 g/ha [11]: 5%
pest or weed control at 125 g/ha [11]: 25%
pest or weed control at 31 g/ha [12]: 0%
pest or weed control at 62 g/ha [12]: 0%
pest or weed control at 125 g/ha [12]: 0%
pest or weed control at 16 g/ha [13]: 50%
pest or weed control at 31 g/ha [13]: 50%
pest or weed control at 62 g/ha [13]: 80%
pest or weed control at 125 g/ha [13]: 95%
pest or weed control at 16 g/ha [14]: 0%
pest or weed control at 31 g/ha [14]: 0%
pest or weed control at 62 g/ha [14]: 0%
pest or weed control at 125 g/ha [14]: 5%
plant injury at 31 g/ha [15]: 50%
plant injury at 62 g/ha [15]: 70%
plant injury at 125 g/ha [15]: 70%

N#Cc1cccc(Oc2ncc(Cl)cn2)c1Oc1ccc(Cl)cc1 [Compound 36]
pest or weed control at 31 g/ha [1]: 30%
pest or weed control at 62 g/ha [1]: 20%
pest or weed control at 125 g/ha [1]: 35%
pest or weed control at 31 g/ha [2]: 90%
pest or weed control at 62 g/ha [2]: 98%
pest or weed control at 125 g/ha [2]: 100%
plant injury at 31 g/ha [3]: 25%
plant injury at 62 g/ha [3]: 50%
plant injury at 125 g/ha [3]: 45%
pest or weed control at 31 g/ha [4]: 5%
pest or weed control at 62 g/ha [4]: 10%
pest or weed control at 125 g/ha [4]: 15%
pest or weed control at 16 g/ha [5]: 10%
pest or weed control at 31 g/ha [5]: 10%
pest or weed control at 62 g/ha [5]: 15%
pest or weed control at 125 g/ha [5]: 20%
pest or weed control at 16 g/ha [6]: 90%
pest or weed control at 31 g/ha [6]: 95%
pest or weed control at 62 g/ha [6]: 98%
pest or weed control at 125 g/ha [6]: 100%
Corn plant response rating (crop injury, 0 = no effect, 100 = complete kill) at 16 g/ha [7]: 10%
Corn plant response rating (crop injury, 0 = no effect, 100 = complete kill) at 31 g/ha [7]: 15%
Corn plant response rating (crop injury, 0 = no effect, 100 = complete kill) at 62 g/ha [7]: 20%
Corn plant response rating (crop injury, 0 = no effect, 100 = complete kill) at 125 g/ha [7]: 20%
pest or weed control at 31 g/ha [8]: 45%
pest or weed control at 62 g/ha [8]: 40%
pest or weed control at 125 g/ha [8]: 75%
pest or weed control at 16 g/ha [9]: 20%
pest or weed control at 31 g/ha [9]: 30%
pest or weed control at 62 g/ha [9]: 35%
pest or weed control at 125 g/ha [9]: 35%
pest or weed control at 31 g/ha [10]: 90%
pest or weed control at 62 g/ha [10]: 100%
pest or weed control at 125 g/ha [10]: 98%
pest or weed control at 16 g/ha [11]: 5%
pest or weed control at 31 g/ha [11]: 5%
pest or weed control at 62 g/ha [11]: 10%
pest or weed control at 125 g/ha [11]: 10%
pest or weed control at 31 g/ha [12]: 5%
pest or weed control at 62 g/ha [12]: 10%
pest or weed control at 125 g/ha [12]: 30%
pest or weed control at 16 g/ha [13]: 70%
pest or weed control at 31 g/ha [13]: 75%
pest or weed control at 62 g/ha [13]: 80%
pest or weed control at 125 g/ha [13]: 100%
pest or weed control at 16 g/ha [14]: 5%
pest or weed control at 31 g/ha [14]: 5%
pest or weed control at 62 g/ha [14]: 30%
pest or weed control at 125 g/ha [14]: 30%
plant injury at 31 g/ha [15]: 85%
plant injury at 62 g/ha [15]: 90%
plant injury at 125 g/ha [15]: 98%
